Experimental data as given in patent US20090298834A1, “4-(AMINOMETHYL)CYCLOHEXANAMINE DERIVATIVES AS CALCIUM CHANNEL BLOCKERS” (priority 2008, published 2009).

What follows are compounds tested against T1, human α1H T-type channels (Homo sapiens, UniProt O95180) (assay: T-type calcium channel block, whole cell patch clamp (α1H)). Conditions: HEK cells stably expressing human α1H; mainly non-inactivated protocol; values above 10 μM represented as 10 μM.
T1 construct: expressed in transfected cells; host or cells: HEK 293
Assay type: cell-based
Experimental: (§1) T-type calcium channel blocking activity was assayed in human embryonic kidney cells, HEK 293, stably transfected with the T-type calcium channel subunits. Briefly, cells were cultured in Dulbecco's modified eagle medium (DMEM) supplemented with 10% fetal bovine serum, 200 U/ml penicillin and 0.2 mg/ml streptomycin at 37° C. with 5% CO2. At 85% confluency cells were split with 0.25% trypsin/1 mM EDTA and plated at 10% confluency on glass coverslips. At 12 hours the medium was replaced and the cells stably transfected using a standard calcium phosphate protocol and the appropriate calcium channel cDNA's. Fresh DMEM was supplied and the cells transferred to 28° C./5% CO2. Cells were incubated for 1 to 2 days prior to whole cell recording.
(§2) Standard patch-clamp techniques were employed to identify blockers of T-type currents. Briefly, previously described HEK cell lines stably expressing human α1G, α1H and α1I T-type channels were used for all the recordings (passage #: 4-20, 37° C., 5% CO2). Whole cell patch clamp experiments were performed using an Axopatch 200B amplifier (Axon Instruments, Burlingame, Calif.) linked to a personal computer equipped with pCLAMP software. Data were analyzed using Clampfit (Axon Instruments) and SigmaPlot 4.0 (Jandel Scientific). To obtain T-type currents, plastic dishes containing semi-confluent cells were positioned on the stage of a ZEISS AXIOVERT S100 microscope after replacing the culture medium with external solution (see below). Whole-cell patches were obtained using pipettes (borosilicate glass with filament, O.D.: 1.5 mm, I.D.: 0.86 mm, 10 cm length), fabricated on a SUTTER P-97 puller with resistance values of ˜5 MΩ (see below for internal solution).
(§3) In the non-inactivating protocol, the holding potential is set at −110 mV and with a pre-pulse at −100 mV for 1 second prior to the test pulse at −40 mV for 50 ms. In the inactivation protocol, the pre-pulse is at approximately −85 mV for 1 second, which inactivates about 15% of the T-type channels.
(§4) Test compounds were dissolved in external solution, 0.1-0.01% DMSO. After 10 min rest, they were applied by gravity close to the cell using a WPI microfil tubing. The “non-inactivated” pre-pulse was used to examine the resting block of a compound. The “inactivated” protocol was employed to study voltage-dependent block. However, the initial data shown below were mainly obtained using the non-inactivated protocol only. . IC50 values are shown for various compounds of the invention in Table 4 for the drug of interest. Values are shown in μM and values above 10 μM are simply represented as 10 μM.

T1 sequence (O95180 whole entry): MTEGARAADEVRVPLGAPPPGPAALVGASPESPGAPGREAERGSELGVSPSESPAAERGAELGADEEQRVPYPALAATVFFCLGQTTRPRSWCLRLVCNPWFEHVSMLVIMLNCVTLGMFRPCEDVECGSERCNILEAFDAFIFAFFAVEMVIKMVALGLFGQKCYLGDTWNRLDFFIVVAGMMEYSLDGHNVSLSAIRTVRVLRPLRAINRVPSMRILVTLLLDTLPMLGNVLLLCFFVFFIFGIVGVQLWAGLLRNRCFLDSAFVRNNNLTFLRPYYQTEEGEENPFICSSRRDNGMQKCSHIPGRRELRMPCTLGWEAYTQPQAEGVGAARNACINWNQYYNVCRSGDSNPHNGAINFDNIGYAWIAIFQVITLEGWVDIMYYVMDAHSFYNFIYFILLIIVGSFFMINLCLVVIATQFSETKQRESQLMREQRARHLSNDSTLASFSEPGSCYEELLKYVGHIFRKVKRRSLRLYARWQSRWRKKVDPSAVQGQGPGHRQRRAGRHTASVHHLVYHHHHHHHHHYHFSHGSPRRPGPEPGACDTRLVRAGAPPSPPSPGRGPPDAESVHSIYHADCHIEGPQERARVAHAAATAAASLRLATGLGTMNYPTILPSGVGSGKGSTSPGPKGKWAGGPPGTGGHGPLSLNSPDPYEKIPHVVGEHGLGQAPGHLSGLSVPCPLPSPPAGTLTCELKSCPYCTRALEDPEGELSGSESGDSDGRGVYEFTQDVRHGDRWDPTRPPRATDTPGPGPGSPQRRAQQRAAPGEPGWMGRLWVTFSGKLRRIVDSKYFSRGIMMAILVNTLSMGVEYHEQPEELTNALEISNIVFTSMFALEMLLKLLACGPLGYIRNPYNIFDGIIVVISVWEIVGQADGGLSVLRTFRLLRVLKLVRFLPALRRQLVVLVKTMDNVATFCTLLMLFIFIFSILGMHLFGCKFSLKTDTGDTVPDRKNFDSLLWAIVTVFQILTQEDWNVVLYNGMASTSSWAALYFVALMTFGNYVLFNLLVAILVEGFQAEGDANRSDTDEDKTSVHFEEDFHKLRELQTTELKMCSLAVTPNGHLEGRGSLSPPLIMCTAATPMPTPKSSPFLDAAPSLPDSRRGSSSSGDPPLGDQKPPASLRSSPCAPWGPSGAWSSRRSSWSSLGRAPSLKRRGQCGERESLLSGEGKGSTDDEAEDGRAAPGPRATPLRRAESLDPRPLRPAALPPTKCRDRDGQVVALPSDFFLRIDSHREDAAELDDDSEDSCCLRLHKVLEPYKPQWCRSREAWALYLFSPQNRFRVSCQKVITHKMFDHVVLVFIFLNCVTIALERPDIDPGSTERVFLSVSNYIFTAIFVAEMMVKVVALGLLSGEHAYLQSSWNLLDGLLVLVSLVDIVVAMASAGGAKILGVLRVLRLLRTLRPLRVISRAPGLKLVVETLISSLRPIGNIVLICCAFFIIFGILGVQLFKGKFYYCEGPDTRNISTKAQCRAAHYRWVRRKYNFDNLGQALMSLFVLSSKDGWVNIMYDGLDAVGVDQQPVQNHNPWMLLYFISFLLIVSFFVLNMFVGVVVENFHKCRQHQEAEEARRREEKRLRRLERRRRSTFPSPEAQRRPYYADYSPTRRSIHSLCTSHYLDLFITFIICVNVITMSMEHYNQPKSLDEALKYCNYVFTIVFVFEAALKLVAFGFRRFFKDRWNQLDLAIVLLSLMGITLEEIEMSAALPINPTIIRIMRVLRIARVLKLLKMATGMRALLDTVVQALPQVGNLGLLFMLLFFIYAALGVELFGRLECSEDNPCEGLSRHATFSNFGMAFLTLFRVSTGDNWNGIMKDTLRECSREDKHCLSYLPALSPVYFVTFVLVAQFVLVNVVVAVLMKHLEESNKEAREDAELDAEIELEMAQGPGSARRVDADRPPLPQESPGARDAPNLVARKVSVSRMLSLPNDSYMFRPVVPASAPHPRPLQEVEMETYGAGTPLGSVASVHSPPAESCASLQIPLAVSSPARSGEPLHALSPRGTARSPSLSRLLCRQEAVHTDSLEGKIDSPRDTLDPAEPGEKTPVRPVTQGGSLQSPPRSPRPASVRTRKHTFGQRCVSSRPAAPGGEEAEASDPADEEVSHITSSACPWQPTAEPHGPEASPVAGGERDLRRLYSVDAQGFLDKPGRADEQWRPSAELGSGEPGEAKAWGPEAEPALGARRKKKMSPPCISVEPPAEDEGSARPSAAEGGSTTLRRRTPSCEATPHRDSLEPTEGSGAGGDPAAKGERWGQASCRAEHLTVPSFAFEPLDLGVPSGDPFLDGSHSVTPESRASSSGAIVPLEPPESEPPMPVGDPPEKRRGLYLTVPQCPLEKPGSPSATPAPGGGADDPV

Row | Compound | IC50 [µM]
1 | O=C(NC[C@H]1CC[C@@H](N2CC(C(F)(F)F)(C(F)(F)F)OC2=O)CC1)c1cc(F)cc(C(F)(F)F)c1 [Compound 154, 3-fluoro-N-((cis-4-(2-oxo-5,5-bis(trifluoromethyl)oxazolidin-3-yl)cyclohexyl)methyl)-5-(trifluoromethyl)benzamide] | 6.16
2 | CC(C)(C)OC(=O)NCCN[C@H]1CC[C@@H](CNC(=O)c2cc(Cl)cc(C(F)(F)F)c2)CC1 [Compound 99, tert-butyl 2-(cis-4-((3-chloro-5-(trifluoromethyl)benzamido)methyl)cyclohexylamino)ethylcarbamate] | 0.44
3 | COc1ccc(CN[C@H]2CC[C@@H](CC(=O)Nc3nc(-c4ccc(C)cc4)cs3)CC2)c(O)c1 [Compound 36, 2-(cis-4-(2-hydroxy-4-methoxybenzylamino)cyclohexyl)-N-(4-p-tolylthiazol-2-yl)acetamide] | ≥ 10
4 | Cc1ccc(-c2csc(NC(=O)C[C@H]3CC[C@@H](NCC(C)(C)NC(=O)OC(C)(C)C)CC3)n2)cc1 [Compound 38, tert-butyl 2-methyl-1-(cis-4-(2-oxo-2-(4-p-tolylthiazol-2-ylamino)ethyl)cyclohexylamino)propan-2-ylcarbamate] | 7.93

Further lines, results first:

Row | IC50 [µM] | Compound
5 | 0.28 | CC(C)(C)OC(=O)NC1(CN[C@H]2CC[C@@H](CNC(=O)c3cc(C(F)(F)F)cc(C(F)(F)F)c3)CC2)CCCC1 [Compound 6, tert-butyl 1-((cis-4-((3,5-bis(trifluoromethyl)benzamido)methyl)cyclohexylamino)methyl)cyclopentylcarbamate]
6 | 2.24 | Cc1cccc(CN[C@H]2CC[C@H](CNC(=O)c3cc(C(F)(F)F)cc(C(F)(F)F)c3)CC2)c1O [Compound 28, N-((trans-4-(2-hydroxy-3-methylbenzylamino)cyclohexyl)methyl)-3,5-bis(trifluoromethyl)benzamide]
7 | 2.08 | O=C(CC1CC1)NCCN[C@H]1CC[C@H](CNC(=O)c2cc(C(F)(F)F)cc(C(F)(F)F)c2)CC1 [Compound 103, N-((trans-4-(2-(2-cyclopropylacetamido)ethylamino)cyclohexyl)methyl)-3,5-bis(trifluoromethyl)benzamide]

The compounds below were run against T2, human α1G T-type channels (Homo sapiens, UniProt O43497) (assay: T-type calcium channel block, whole cell patch clamp (α1G)). Conditions: HEK cells stably expressing human α1G; mainly non-inactivated protocol; values above 10 μM represented as 10 μM, values below 0.30 μM represented as 0.30 μM.
T2 construct: expressed in transfected cells; host or cells: HEK 293
Assay type: cell-based
Experimental: as §1, §2, §3, §4

T2 sequence (O43497 whole entry): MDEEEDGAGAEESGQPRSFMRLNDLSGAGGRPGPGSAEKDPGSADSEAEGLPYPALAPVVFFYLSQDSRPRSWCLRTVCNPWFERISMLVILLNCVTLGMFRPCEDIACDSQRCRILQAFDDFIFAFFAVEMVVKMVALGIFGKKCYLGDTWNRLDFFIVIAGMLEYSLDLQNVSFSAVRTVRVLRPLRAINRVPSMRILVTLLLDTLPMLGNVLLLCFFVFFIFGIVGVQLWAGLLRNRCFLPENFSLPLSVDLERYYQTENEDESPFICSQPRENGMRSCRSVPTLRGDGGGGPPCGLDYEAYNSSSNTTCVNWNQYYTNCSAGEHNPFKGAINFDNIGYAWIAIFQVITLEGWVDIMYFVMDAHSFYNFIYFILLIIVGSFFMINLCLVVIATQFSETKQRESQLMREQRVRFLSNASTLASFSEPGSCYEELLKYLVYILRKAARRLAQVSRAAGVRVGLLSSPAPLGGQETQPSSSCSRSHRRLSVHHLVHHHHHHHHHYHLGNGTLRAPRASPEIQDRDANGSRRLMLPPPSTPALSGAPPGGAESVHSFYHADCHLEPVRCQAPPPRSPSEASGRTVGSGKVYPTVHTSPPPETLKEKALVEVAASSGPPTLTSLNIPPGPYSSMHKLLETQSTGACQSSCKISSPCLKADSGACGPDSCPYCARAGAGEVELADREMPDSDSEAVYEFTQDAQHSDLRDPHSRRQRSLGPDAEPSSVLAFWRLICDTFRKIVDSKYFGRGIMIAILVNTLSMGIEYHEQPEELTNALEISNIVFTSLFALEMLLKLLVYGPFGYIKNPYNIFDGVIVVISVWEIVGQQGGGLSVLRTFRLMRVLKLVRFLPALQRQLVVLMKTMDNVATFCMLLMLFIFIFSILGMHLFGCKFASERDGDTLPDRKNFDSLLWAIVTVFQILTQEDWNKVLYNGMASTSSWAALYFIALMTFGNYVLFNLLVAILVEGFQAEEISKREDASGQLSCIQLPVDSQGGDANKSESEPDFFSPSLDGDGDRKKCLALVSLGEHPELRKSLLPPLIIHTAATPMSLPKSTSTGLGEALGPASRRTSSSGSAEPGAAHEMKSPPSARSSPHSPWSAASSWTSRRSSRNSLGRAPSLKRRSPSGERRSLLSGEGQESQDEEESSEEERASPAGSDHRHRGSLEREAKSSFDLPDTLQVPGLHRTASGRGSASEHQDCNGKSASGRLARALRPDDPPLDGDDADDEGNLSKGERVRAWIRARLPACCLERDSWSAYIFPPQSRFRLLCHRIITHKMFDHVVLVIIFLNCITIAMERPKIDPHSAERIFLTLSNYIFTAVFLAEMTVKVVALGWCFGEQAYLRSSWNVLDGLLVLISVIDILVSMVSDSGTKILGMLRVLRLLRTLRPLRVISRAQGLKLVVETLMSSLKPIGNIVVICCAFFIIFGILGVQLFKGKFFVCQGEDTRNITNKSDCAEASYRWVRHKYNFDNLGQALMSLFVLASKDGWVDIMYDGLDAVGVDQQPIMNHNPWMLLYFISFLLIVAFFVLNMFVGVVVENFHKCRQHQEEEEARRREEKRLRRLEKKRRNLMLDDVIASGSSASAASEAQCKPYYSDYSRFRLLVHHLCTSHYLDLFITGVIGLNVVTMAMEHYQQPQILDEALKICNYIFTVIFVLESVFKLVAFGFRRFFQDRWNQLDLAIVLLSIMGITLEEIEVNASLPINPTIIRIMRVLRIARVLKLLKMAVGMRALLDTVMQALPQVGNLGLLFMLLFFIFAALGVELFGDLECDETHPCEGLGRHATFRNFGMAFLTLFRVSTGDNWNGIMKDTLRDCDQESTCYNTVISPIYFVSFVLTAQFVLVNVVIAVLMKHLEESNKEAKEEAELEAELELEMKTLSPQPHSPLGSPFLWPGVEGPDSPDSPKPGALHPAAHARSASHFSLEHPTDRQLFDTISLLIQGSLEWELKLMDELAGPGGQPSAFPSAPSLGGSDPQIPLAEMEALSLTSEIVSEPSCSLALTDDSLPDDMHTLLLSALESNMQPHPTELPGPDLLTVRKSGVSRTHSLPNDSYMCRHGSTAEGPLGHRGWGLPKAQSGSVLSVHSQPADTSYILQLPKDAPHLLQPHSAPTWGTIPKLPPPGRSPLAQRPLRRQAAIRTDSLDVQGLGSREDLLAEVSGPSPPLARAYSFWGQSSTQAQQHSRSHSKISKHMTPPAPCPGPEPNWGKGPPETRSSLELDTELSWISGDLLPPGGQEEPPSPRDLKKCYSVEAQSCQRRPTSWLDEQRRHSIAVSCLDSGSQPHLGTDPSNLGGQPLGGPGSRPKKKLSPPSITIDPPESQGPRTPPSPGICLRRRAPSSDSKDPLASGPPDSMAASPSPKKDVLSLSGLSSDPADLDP

Row | Compound | IC50 [µM]
8 | O=C(NC[C@H]1CC[C@@H](NC(=O)C2(c3ccccc3)CCNCC2)CC1)c1cc(C(F)(F)F)cc(C(F)(F)F)c1 [Compound 128, N-(cis-4-((3,5-bis(trifluoromethyl)benzamido)methyl)cyclohexyl)-4-phenylpiperidine-4-carboxamide] | 5.78
9 | Cc1ccc(-c2csc(NC(=O)C[C@H]3CC[C@@H](NC(=O)[C@@H]4CC[C@H](c5ccccc5)N4)CC3)n2)cc1 [Compound 131] | 7.56
10 | N[C@H]1CC[C@@H](CC(=O)Nc2cc(C(F)(F)F)cc(C(F)(F)F)c2)CC1 [Compound 106, 2-(cis-4-aminocyclohexyl)-N-(3,5-bis(trifluoromethyl)phenyl)acetamide] | 6.11
11 | O=C(C[C@H]1CC[C@@H](NC(=O)C2(c3ccccc3)CCNCC2)CC1)NCc1cccc(OC(F)(F)F)c1 [Compound 114, N-(cis-4-(2-oxo-2-(3-(trifluoromethoxy)benzylamino)ethyl)cyclohexyl)-4-phenylpiperidin-4-carboxamide] | ≥ 10
12 | O=C(NC[C@H]1CC[C@H](NC(=O)C2(c3ccccc3)CCNCC2)CC1)c1cc(C(F)(F)F)cc(C(F)(F)F)c1 [Compound 136, N-(trans-4-((3,5-bis(trifluoromethyl)benzamido)methyl)cyclohexyl)-4-phenylpiperidine-4-carboxamide] | 3.81
13 | Cc1ccc(-c2csc(NC(=O)C[C@H]3CC[C@@H](NC(=O)[C@@H]4C[C@H](c5ccccc5)CN4)CC3)n2)cc1 [Compound 130, (2S,4R)-N-(cis-4-(2-oxo-2-(4-p-tolylthiazol-2-ylamino)ethyl)cyclohexyl)-4-phenylpyrrolidine-2-carboxamide] | 4.11
14 | Cc1ccc(-c2csc(NC(=O)C[C@H]3CC[C@@H](NC(=O)[C@H]4CC[C@@H](c5ccccc5)N4)CC3)n2)cc1 [Compound 138, (2R,5S)-N-(cis-4-(2-oxo-2-(4-p-tolylthiazol-2-ylamino)ethyl)cyclohexyl)-5-phenylpyrrolidine-2-carboxamide] | 4.88
15 | Cc1ccc(-c2csc(NC(=O)C[C@H]3CC[C@@H](NC(=O)[C@@H]4C[C@@H](c5ccccc5)CN4)CC3)n2)cc1 [Compound 129, (2S,4S)-N-(cis-4-(2-oxo-2-(4-p-tolylthiazol-2-ylamino)ethyl)cyclohexyl)-4-phenylpyrrolidine-2-carboxamide] | 5.29

Continued, values first:

Row | IC50 [µM] | Compound
16 | 4.07 | NC1(C(=O)N[C@H]2CC[C@@H](CC(=O)Nc3cc(C(F)(F)F)cc(C(F)(F)F)c3)CC2)CC1 [Compound 149, 1-amino-N-(cis-4-(2-(3,5-bis(trifluoromethyl)phenylamino)-2-oxoethyl)cyclohexyl)cyclopropanecarboxamide]
17 | 3.82 | O=C(C[C@H]1CC[C@@H](NC(=O)C2CCNCC2)CC1)Nc1cc(C(F)(F)F)cc(C(F)(F)F)c1 [Compound 144, N-(cis-4-(2-(3,5-bis(trifluoromethyl)phenylamino)-2-oxoethyl)cyclohexyl)piperidine-4-carboxamide]
18 | ≥ 10 | NC1(C(=O)N[C@H]2CC[C@@H](CNC(=O)c3cc(F)cc(C(F)(F)F)c3)CC2)CCCC1 [Compound 141, N-((cis-4-(1-aminocyclopentanecarboxamido)cyclohexyl)methyl)-3-fluoro-5-(trifluoromethyl)benzamide]
19 | 7.6 | O=C(C[C@H]1CC[C@@H](NC(=O)[C@H]2C[C@H](O)CN2)CC1)Nc1cc(C(F)(F)F)cc(C(F)(F)F)c1 [Compound 145]
20 | 4.59 | NC1(C(=O)N[C@H]2CC[C@@H](CC(=O)Nc3cc(C(F)(F)F)cc(C(F)(F)F)c3)CC2)CCOCC1 [Compound 147, 4-amino-N-(cis-4-(2-(3,5-bis(trifluoromethyl)phenylamino)-2-oxoethyl)cyclohexyl)tetrahydro-2H-pyran-4-carboxamide]
21 | ≥ 10 | NC1(C(=O)N[C@H]2CC[C@H](CNC(=O)c3cc(C(F)(F)F)cc(C(F)(F)F)c3)CC2)CCCC1 [Compound 142, N-((trans-4-(1-aminocyclopentanecarboxamido)cyclohexyl)methyl)-3,5-bis(trifluoromethyl)benzamide]
22 | 4.89 | O=C(C[C@H]1CC[C@H](NC(=O)[C@H]2CCCN2)CC1)Nc1cc(C(F)(F)F)cc(C(F)(F)F)c1 [Compound 118, (R)-N-(trans-4-(2-(3,5-bis(trifluoromethyl)phenylamino)-2-oxoethyl)cyclohexyl)pyrrolidine-2-carboxamide]
23 | 9.67 | NC1(C(=O)N[C@H]2CC[C@@H](CNC(=O)c3cc(C(F)(F)F)cc(C(F)(F)F)c3)CC2)CCCC1 [Compound 140, N-((cis-4-(1-aminocyclopentanecarboxamido)cyclohexyl)methyl)-3,5-bis(trifluoromethyl)benzamide]
24 | 2.65 | O=C(NC[C@H]1CC[C@H](NCCNS(=O)(=O)C(F)(F)F)CC1)c1cc(C(F)(F)F)cc(C(F)(F)F)c1 [Compound 155, 3,5-bis(trifluoromethyl)-N-((trans-4-(2-(trifluoromethylsulfonamido)ethylamino)cyclohexyl)methyl)benzamide]
25 | 4.44 | O=C(C[C@H]1CC[C@H](NC(=O)[C@@H]2CCCCN2)CC1)Nc1cc(C(F)(F)F)cc(C(F)(F)F)c1 [Compound 120, (S)-N-(trans-4-(2-(3,5-bis(trifluoromethyl)phenylamino)-2-oxoethyl)cyclohexyl)piperidine-2-carboxamide]
26 | ≥ 10 | NC1(C(=O)N[C@H]2CC[C@@H](CC(=O)NCc3cccc(OC(F)(F)F)c3)CC2)CCCCC1 [Compound 109, 1-amino-N-(cis-4-(2-oxo-2-(3-(trifluoromethoxy)benzylamino)ethyl)cyclohexyl)cyclohexanecarboxamide]
27 | ≥ 10 | O=C(NC[C@H]1CC[C@@H](NCCNS(=O)(=O)C(F)(F)F)CC1)c1cc(F)cc(C(F)(F)F)c1 [Compound 156, 3-fluoro-5-(trifluoromethyl)-N-((cis-4-(2-(trifluoromethylsulfonamido)ethylamino)cyclohexyl)methyl)benzamide]
28 | 2.94 | O=C(C[C@H]1CC[C@@H](NC(=O)C2(O)CCNCC2)CC1)Nc1cc(C(F)(F)F)cc(C(F)(F)F)c1 [Compound 148, N-(cis-4-(2-(3,5-bis(trifluoromethyl)phenylamino)-2-oxoethyl)cyclohexyl)-4-hydroxypipendine-4-carboxamide]
